Experimental data as given in US4430355A, “Condensed isothiazolo-3 (2H)-one-1-1-dioxides” (priority 1977, dated 1984).
Counter-ions that a name gives are not always drawn.

What was measured:
mice [1] = experiment: Spontaneous motility in light beam cages; type: in vivo; settings: same dosage (200 mgm/kg p.o.)
bacteria = experiment: Bacteriostatic effect
[2] = Determination of the threshold concentration (taste testers, Schutz and Pilgrim method); set-up: key: mean of 5 testers; 0 = not sweet, 3 = very sweet
Description: From novel compounds A, B, C, D, E and F and from known comparison compounds U, V and W aqueous solutions in concentrations of 1:12500, 1:25000, 1:50000, 1:100000 and 1:200000 were prepared and evaluated by each of 5 taste testers according to the following criteria: Very sweet (=3 points); medium sweet (=2 points), slightly sweet (=1 point) and not sweet (=0 point). The tests were carried out according to the method of H. G. Schutz and F. J. Pilgrim [Food Research 22, 206 (1957)]. The dilution with perceptible sweetness was defined as the concentration at which the average value reached the evaluation points 1.0 or higher.

[3] = tested on: Escherichia coli WP 2 (P); experiment: AMES-system, test for mutagenic effects, Escherichia coli; type: cell-based
Description: In order to show the whole spectrum of induced molecular DNA-damages (base substitutions, frame-shift mutations, deletions) the auxotrophic bacterial strains Salmonella typhimurium TA 98, TA 100 and Escherichia coli WP 2 (P) were used as genetic indicators.
The test for all microorganisms were carried out in a way such that the influence of a microsomal enzyme system, together with the corresponding co-factors, could be tested with regard to the test substance, and to determine the differences in enzyme induction. The tests were performed without an activating system and in the presence of an activating system. […] From the S-9 induced fraction, 3 different concentration levels were tested.

[4] = tested on: thrombozytes in the platelet-rich plasma of healthy test persons; experiment: Thrombozyte aggregation in platelet-rich plasma; type: cell-based; settings: 1×10^-4 mol/liter
Description: (§1) The compound C had no effect on the contractility and the frequency of the isolated, beating atrium of the rat heart. When compound C was given in doses of 1.0 and 3.0 and 10.0 mg/kg i.v. no effect on blood pressure, heart rate and respiration of anesthetized cats could be observed. At concentrations of 1×10^-4 mol/liter compound C had no effect on the ADP-induced, thrombine-induced and collagen-induced aggregation of the thrombozytes in the platelet-rich plasma of healthy test persons.

mice [5] = experiment: Electroshock convulsion; type: in vivo; settings: 200 mgm/kg p.o.
[6] = tested on: isolated, beating atrium of the rat heart; experiment: Isolated, beating atrium
Description: as §1

water-loaded male rats = experiment: Secretion of Na+, K+, Cl- and liquid in water-loaded rats; type: in vivo; settings: 200 mgm/kg p.o.
[7] = tested on: intestinal tract of the rat; experiment: Ulcerations in the intestinal tract; type: in vivo; settings: 3 times 200 mgm/kg p.o.
mice [8] = experiment: Tail clamp test according to Haffner, defensive reactions to pain stimuli; type: in vivo; settings: 200 mgm/kg p.o.
Body temperature = type: in vivo; settings: rats, 200 mg/kg p.o.; 1, 2, 3 and 4 hours after administration
Description: (§2) Also, the test of the motility of rats in electric activity cages according to Fuhrer and Feldhofer [Arzneim. Forsch. […] Moreover, no effect regarding the body temperatures of the rats at a dosage of 200 mg/kg p.o. could be observed. The measurements were made after 1, 2, 3 and 4 hours after oral administration of the substance; one control group only received the distilled water solvent.

rats = experiment: Spontaneous motility in electric activity cages (Fuhrer and Feldhofer); type: in vivo
Description: as §2

[9] = Evaluation of taste quality
Source text: They often have a side-taste or after-taste. Novel compounds A to F are, however, characterized by a very pure sweet taste.

microorganism growth = experiment: Series dilution essay, inhibition of the microorganism growth; type: cell-based; settings: highest dosages (C 0.5 mgm/plate, D 20 mg/plate)
Description: (§3) The substance concentrations of compound C were 0.1 and 0.5 mgm/plate and the concentrations of compound D were 5, 10, 15 and 20 mg/plate.

male mice = experiment: Hypothermia caused by reserpine; type: in vivo
Source text: It also has no influence on the hypothermia of male mice, which is caused by reserpine.

mice [10] = experiment: Rotating cylinder test, muscle-relaxing and coordination inhibitory effects; type: in vivo; settings: 200 mgm/kg p.o.
mice [11] = experiment: Hexobarbital narcosis, loss of the righting reflex; type: in vivo; settings: 25 mgm/kg p.o.
Source text: Compound C has no effect on the hexobarbital narcosis in mice.

[12] = tested on: Salmonella typhimurium TA 98, TA 100, TA 1535, TA 1537, TA 1538; experiment: AMES-system, test for mutagenic effects, Salmonella typhimurium; type: cell-based
Description: Compounds C and D were tested in the AMES-system [Mutation Research 31, 347-364 (1975)] with regard to their mutagenic properties. In order to show the whole spectrum of induced molecular DNA-damages (base substitutions, frame-shift mutations, deletions) the auxotrophic bacterial strains Salmonella typhimurium TA 98, TA 100 and Escherichia coli WP 2 (P) were used as genetic indicators. The strains Salmonella typhimurium TA 1535, TA 1537 and TA 1538 were additionally used in the test of compound C.
The test for all microorganisms were carried out in a way such that the influence of a microsomal enzyme system, together with the corresponding co-factors, could be tested with regard to the test substance, and to determine the differences in enzyme induction. The tests were performed without an activating system and in the presence of an activating system. For the in vitro-activation, S-9 supernatants (fraction of the endoplasmatic reticulum) of normal, i.e. not pre-treated rats and of Aroclor 1254 (500 mg/kg) induced rats were used. From the S-9 induced fraction, 3 different concentration levels were tested.
as §3

rat = experiment: Orienting acute toxicity, oral, rat; type: in vivo; settings: 5000 mgm/kg oral, 6 animals
Description: The acute toxicity was determined after oral administration to male and female mice and to male and female rats. The substances were given in an aqueous solution or as a suspension in tylose.

anesthetized cats = experiment: Blood pressure, heart rate and respiration of anesthetized cats; type: in vivo; settings: anesthetized cats, 1.0, 3.0 and 10.0 mg/kg i.v.
Description: as §1

fungi = experiment: Fungistatic effect
eye of the rabbit = experiment: Local compatibility in the eye; type: in vivo; settings: 1% solution
[13] = heretofore known sweetening agents; cited from earlier work
[14] = usual concentrations, corresponding to a 2-10% solution of saccharose; cited from earlier work
[15] = Batzinger, On and Bueding, Science 198, 944 (1977); cited from earlier work
[16] = Determination of the relative sweetening power in comparison to saccharose (taste testers, 3% saccharose solution); settings: compared with 3% aqueous solution of saccharose
Source text: The relative sweetening power (often also defined as degree of sweetness) of sweetening agents in comparison to saccharose (cane sugar) varies with the concentrations within wide limits. Thus, in the usual concentrations (corresponding to a 2-10% solution of saccharose) the relative sweetening power of saccharin varies from 200 to 700. Therefore, for the determination of the relative sweetening power of the above-mentioned compounds a 3% aqueous solution of saccharose was always used for comparison.
The further determination of the relative sweetening power was continued according to the methods of R. Pauli [Chemiker Zeitung 44, 744 (1920)] and T. Paul [Chemiker-Zeitung 45 38 (1921)]. Each test series was tested by 4 taste testers.

Cc1cc2c(s1)S(=O)(=O)NC2=O [Compound C, 5-Methyl-thieno[3,2-d]isothiazole-3-(2H)-one-1,1-dioxide sodium salt]
influence on spontaneous motility (mice [1]): does not influence the spontaneous motility of mice
bacteriostatic effect (bacteria): neither bacteriostatically nor fungistatically effective
Average Value of Evaluation Points ([2]; concentration 1:25000, sodium salt): 2.0
Average Value of Evaluation Points ([2]; concentration 1:50000, sodium salt): 1.2
release of base substitutions ([3]; E. coli WP2 (P)): do not release base substitutions
increase in the spontaneous mutation rate ([3]; E. coli WP 2 (P), C 0.1 and 0.5 mgm/plate, D 5-20 mg/plate, with and without activating system): did not lead to an increase
effect on ADP-induced aggregation of thrombozytes [4]: no effect
effect on collagen-induced aggregation of thrombozytes [4]: no effect
effect on thrombine-induced aggregation of thrombozytes [4]: no effect
influence on electroshock convulsion (mice [5]): does not influence
effect on contractility [6]: no effect
effect on frequency [6]: no effect
secretion of Cl^- (water-loaded male rats): no effect
secretion of K^+ (water-loaded male rats): no effect
secretion of Na^+ (water-loaded male rats): no effect
secretion of liquid (water-loaded male rats): no effect
ulcerations in the intestinal tract [7]: does not cause any ulcerations
influence on the defensive reactions to pain stimuli (mice [8]): did not show any influence
effect on body temperature (Body temperature): no effect
effect on spontaneous motility (rats): did not show any effect on the spontaneous motility
taste quality compared with saccharose (cane sugar) [9]: achieve the taste quality of saccharose
inhibition of the microorganism growth (microorganism growth): did not show any inhibition
influence on reserpine hypothermia (male mice): no influence
ability to hold themselves in rotating cylinders (mice [10]): able to hold themselves in rotating cylinders
muscle-relaxing and coordination inhibitory effects (mice [10]): no muscle-relaxing and coordination inhibitory effects
duration of hexobarbital narcosis (loss of the righting reflex) (mice [11]): not influenced
release of base substitutions ([12]; S. typhimurium TA 1535, TA 100): do not release base substitutions
release of frame-shift mutations ([12]; S. typhimurium TA 1537, TA 1538, TA 98): do not release
increase in the spontaneous mutation rate ([12]; Salmonella strains, C 0.1 and 0.5 mgm/plate, D 5-20 mg/plate, with and without activating system): did not lead to an increase
colonies counted on the substance plates ([12]; all test strains): within the spontaneous range
effect of the enzyme induction and of the activating fraction on the reverse mutation rate ([12]; all tested strains, S-9 of normal and Aroclor 1254 induced rats): not detectable
mutagenic potential ([12]; conclusion over all tested strains): do not indicate a mutagenic potential
Animals which died within the observation time, 1 day (rat): 0 animals
Animals which died within the observation time, 7 days (rat): 0 animals
effect on blood pressure (anesthetized cats): no effect
effect on heart rate (anesthetized cats): no effect
effect on respiration (anesthetized cats): no effect
fungistatic effect (fungi): neither bacteriostatically nor fungistatically effective
local anesthesia (eye of the rabbit): no local anesthesia
mydriasis (eye of the rabbit): no mydriasis
redness of the conjunctiva (eye of the rabbit): no redness of the conjunctiva

O=C1NS(=O)(=O)c2ccccc21 [V, Saccharin, reference compound]
Average Value of Evaluation Points ([2]; concentration 1:25000): 2.4
Average Value of Evaluation Points ([2]; concentration 1:50000): 1.2
Average Value of Evaluation Points ([2]; concentration 1:100000): 0.4
side-taste or after-taste [13]: unpleasant after-taste
taste quality compared with saccharose [13]: do not have the taste quality of saccharose
relative sweetening power of saccharin [14]: 200 to 700
mutagenic effect [15]: shows a mutagenic effect
Relative Sweetening Power (Saccharose = 1) [16]: 550
